The text below walks through data of patent publication US8138215B2, “Hepatitis C virus inhibitors” (Bristol-Myers Squibb Company, priority 2009, dated 2012).

Where two headings read alike, the source gives them in different places.

In the experiment the test system is HCV 1b genotype. In words: HCV Replicon assay, 1b genotype. It counts as cell-based. Conditions: Hepatitis C virus, HCV 1b genotype replicon. The protocol: An HCV Replicon assay was utilized in the present disclosure, and was prepared, conducted and validated as described in commonly owned PCT/US2006/022197 and in O'Boyle et. al. Antimicrob Agents Chemother. 2005 April; 49(4):1346-53. Assay methods incorporating luciferase reporters have also been used as described (Apath.com).
HCV-neo replicon cells and replicon cells containing mutations in the NS5A region were used to test the currently described family of compounds. The compounds were determined to have more than 10-fold less inhibitory activity on cells containing mutations than wild-type cells. Thus, the compounds of the present disclosure can be effective in inhibiting the function of the HCV NS5A protein and are understood to be as effective in combinations as previously described in application PCT/US2006/022197 and commonly owned WO/04014852. Further, the compounds of the present disclosure can be effective against the HCV 1b genotype. It should also be understood that the compounds of the present disclosure can inhibit multiple genotypes of HCV. […] In one embodiment, compounds of the present disclosure are active against the 1a, 1b, 2a, 2b, 3a, 4a, and 5a genotypes. EC50 values against HCV 1b are as follows: A=5 pM to 5 nM.
For orientation: A replicon is a self-replicating genome or part of one, used to study replication in cells.

The mark [1] stands for this setting: read-out: Range (EC50 values against HCV 1b).
Where [2] appears, read: read-out: 1b EC50 (Effective 50% inhibitory concentration).

As for `O=C(N[C@@H](C(=O)N1CCC[C@H]1c1nc(-c2ccc(-c3ccc(-c4c[nH]c([C@@H]5CCCN5C(=O)[C@H](NC(=O)OC5CCC5)c5ccccc5)n4)cc3)cc2)c[nH]1)c1ccccc1)OC1CCC1` [Example CQ-1, Cyclobutyl ((1R)-2-((2S)-2-(4-(4′-(2-((2S)-1-((2R)-2-(((cyclobutyloxy)carbonyl)amino)-2-phenylacetyl)-2-pyrrolidinyl)-1H-imidazol-5-yl)-4-biphenylyl)-1H-imidazol-2-yl)-1-pyrrolidinyl)-2-oxo-1-phenylethyl)carbamate], the EC50 under setting [1] fell in the range of 5 to 5000 pM.
On to `O=C(N[C@@H](C(=O)N1CCC[C@H]1c1nc(-c2ccc(-c3ccc(-c4c[nH]c([C@@H]5CCCN5C(=O)[C@H](NC(=O)OC5CCCC5)c5ccccc5)n4)cc3)cc2)c[nH]1)c1ccccc1)OC1CCCC1` [Example CQ-2, Cyclopentyl ((1R)-2-((2S)-2-(4-(4′-(2-((2S)-1-((2R)-2-(((cyclopentyloxy)carbonyl)amino)-2-phenylacetyl)-2-pyrrolidinyl)-1H-imidazol-5-yl)-4-biphenylyl)-1H-imidazol-2-yl)-1-pyrrolidinyl)-2-oxo-1-phenylethyl)carbamate], for which the EC50 runs as follows: under setting [2], 12 pM; under setting [1], 5 to 5000 pM.
Consider `O=C(N[C@@H](C(=O)N1CCC[C@H]1c1nc(-c2ccc(-c3ccc(-c4cnc([C@@H]5CCCN5C(=O)[C@H](NC(=O)OC5CC5)c5ccccc5)[nH]4)cc3)cc2)c[nH]1)c1ccccc1)OC1CC1` [Example CQ-3, Cyclopropyl ((1R)-2-((2S)-2-(4-(4′-(2-((2S)-1-((2R)-2-(((cyclopropyloxy)carbonyl)amino)-2-phenylacetyl)-2-pyrrolidinyl)-1H-imidazol-5-yl)-4-biphenylyl)-1H-imidazol-2-yl)-1-pyrrolidinyl)-2-oxo-1-phenylethyl)carbamate], for which the EC50 under setting [1] was 5 to 5000 pM.
Turning to `O=C(N[C@@H](C(=O)N1CCC[C@H]1c1nc(-c2ccc(-c3ccc(-c4cnc([C@@H]5CCCN5C(=O)[C@H](NC(=O)OC5CCCCC5)c5ccccc5)[nH]4)cc3)cc2)c[nH]1)c1ccccc1)OC1CCCCC1` [Example CQ-4, Cyclohexyl ((1R)-2-((2S)-2-(4-(4′-(2-((2S)-1-((2R)-2-(((cyclohexyloxy)carbonyl)amino)-2-phenylacetyl)-2-pyrrolidinyl)-1H-imidazol-5-yl)-4-biphenylyl)-1H-imidazol-2-yl)-1-pyrrolidinyl)-2-oxo-1-phenylethyl)carbamate], the EC50 under setting [1] lay within 5 to 5000 pM.
Still for that read-out and setting: as for `O=C(N[C@@H](C(=O)N1[C@@H]2C[C@@H]2C[C@H]1c1nc(-c2ccc(-c3ccc(-c4c[nH]c([C@@H]5C[C@H]6C[C@H]6N5C(=O)[C@H](NC(=O)OC5CCC5)c5ccccc5)n4)cc3)cc2)c[nH]1)c1ccccc1)OC1CCC1` [Example CQ-5, Cyclobutyl ((1R)-2-((1R,3S,5R)-3-(4-(4′-(2-((1R,3S,5R)-2-((2R)-2-(((cyclobutyloxy)carbonyl)amino)-2-phenylacetyl)-2-azabicyclo[3.1.0]hex-3-yl)-1H-imidazol-5-yl)-4-biphenylyl)-1H-imidazol-2-yl)-2-azabicyclo[3.1.0]hex-2-yl)-2-oxo-1-phenylethyl)carbamate], the figure is 5 to 5000 pM; as for `O=C(N[C@@H](C(=O)N1[C@@H]2C[C@@H]2C[C@H]1c1nc(-c2ccc(-c3ccc(-c4c[nH]c([C@@H]5C[C@H]6C[C@H]6N5C(=O)[C@H](NC(=O)OC5CCCC5)c5ccccc5)n4)cc3)cc2)c[nH]1)c1ccccc1)OC1CCCC1` [Example CQ-6, Cyclopentyl ((1R)-2-((1R,3S,5R)-3-(4-(4′-(2-((1R,3S,5R)-2-((2R)-2-(((cyclopentyloxy)carbonyl)amino)-2-phenylacetyl)-2-azabicyclo[3.1.0]hex-3-yl)-1H-imidazol-5-yl)-4-biphenylyl)-1H-imidazol-2-yl)-2-azabicyclo[3.1.0]hex-2-yl)-2-oxo-1-phenylethyl)carbamate], 5 to 5000 pM.
In the case of `O=C(N[C@@H](C(=O)N1[C@@H]2C[C@@H]2C[C@H]1c1nc(-c2ccc(-c3ccc(-c4cnc([C@@H]5C[C@H]6C[C@H]6N5C(=O)[C@H](NC(=O)OC5CC5)c5ccccc5)[nH]4)cc3)cc2)c[nH]1)c1ccccc1)OC1CC1` [Example CQ-7, Cyclopropyl ((1R)-2-((1R,3S,5R)-3-(4-(4′-(2-((1R,3S,5R)-2-((2R)-2-(((cyclopropyloxy)carbonyl)amino)-2-phenylacetyl)-2-azabicyclo[3.1.0]hex-3-yl)-1H-imidazol-5-yl)-4-biphenylyl)-1H-imidazol-2-yl)-2-azabicyclo[3.1.0]hex-2-yl)-2-oxo-1-phenylethyl)carbamate], the EC50 was 6.1 pM under setting [2] and 5 to 5000 pM under setting [1].
In the case of `O=C(N[C@@H](C(=O)N1[C@@H]2C[C@@H]2C[C@H]1c1nc(-c2ccc(-c3ccc(-c4cnc([C@@H]5C[C@H]6C[C@H]6N5C(=O)[C@H](NC(=O)OC5CCCCC5)c5ccccc5)[nH]4)cc3)cc2)c[nH]1)c1ccccc1)OC1CCCCC1` [Example CQ-8, Cyclohexyl ((1R)-2-((1R,3S,5R)-3-(4-(4′-(2-((1R,3S,5R)-2-((2R)-2-(((cyclohexyloxy)carbonyl)amino)-2-phenylacetyl)-2-azabicyclo[3.1.0]hex-3-yl)-1H-imidazol-5-yl)-4-biphenylyl)-1H-imidazol-2-yl)-2-azabicyclo[3.1.0]hex-2-yl)-2-oxo-1-phenylethyl)carbamate], the EC50 under setting [1] fell in the range of 5 to 5000 pM.
